The subject of data set [1] is major crops (wheat, corn, rice, soybean, cotton, oilseed rape, millet, sorghum). The experiment in a line: Experiment on weeding effect in post-emergence stage (crops). The format is in vivo. Particulars: 600 g/ha active ingredient plus water 450 kg/ha, 3 weeks after application; for corn plant damage level (growth control rate): crop corn; for rice plant damage level (growth control rate): crop rice; for soybean plant damage level (growth control rate): crop soybean. The procedure:
(§1) The above growth control rates are fresh weight control rates.
(§2) (1) Experiment on weeding effect in post-emergence stage: monocotyledonous and dicotyledonous weed seeds and major crop seeds (wheat, corn, rice, soybean, cotton, oilseed rape, millet, sorghum) were placed in plastic pots filled with soil, then covered with 0.5-2 cm of soil, allowed to grow in a good greenhouse environment. After 2-3 weeks of sowing, the test plants were treated. The tested compounds of the present invention were respectively dissolved in acetone, then added with Tween 80, diluted with a certain amount of water to obtain a solution with a certain concentration, and sprayed with a spray tower onto the plants.

The subject of data set [2] is monocotyledonous and dicotyledonous weeds. The data set is described as follows: Experiment on weeding effect in post-emergence stage (weeds). The format is in vivo. Particulars: 600 g/ha active ingredient plus water 450 kg/ha, 3 weeks after application, fresh weight control rate; for Amaranthus retroflexus activity level (growth control rate): fomesafen-resistant Amaranthus retroflexus.
Source text: The activity level criteria for plant damage (i.e., growth control rate) are as follows: • Level 5: growth control rate is above 85%; • Level 4: growth control rate is greater than or equal to 60% and less than 85%; • Level 3: growth control rate is greater than or equal to 40% and less than 60%; • Level 2: growth control rate is greater than or equal to 20% and less than 40%; • Level 1: growth control rate is greater than or equal to […]; • Level 0: growth control rate is less than 5%.
as §1
as §2, with “plants. After the application, the plants were cultured for 3 weeks in the greenhouse, and then the experimental results of the weeding were listed in Table 2.” for “plants.”

`O=C1c2c(cc(F)c(F)c2F)NS(=O)(=O)N1CCl` [E, reference compound]: in data set [1], the “corn plant damage level (growth control rate)” value (“corn plant damage level” below) was 1 (Level 1: growth control rate is greater than or equal to 500 and less than 200%); the “rice plant damage level (growth control rate)” value (from here on “rice plant damage level”) is 1 (Level 1: growth control rate is greater than or equal to 500 and less than 200%); the “soybean plant damage level (growth control rate)” value (from here on “soybean plant damage level”) is 1 (Level 1: growth control rate is greater than or equal to 500 and less than 200%). Besides, in data set [2], the “Amaranthus retroflexus activity level (growth control rate)” value (“Amaranthus retroflexus activity level” below) was 2 (Level 2: growth control rate is greater than or equal to 20% and less than 40%); the “Digitaria sanguinalis activity level (growth control rate)” value was 1 (Level 1: growth control rate is greater than or equal to 500 and less than 200%); the “Echinochloa crus-galli activity level (growth control rate)” value (“Echinochloa crus-galli activity level” below) was 1 (Level 1: growth control rate is greater than or equal to 500 and less than 200%); the “Setaria viridis activity level (growth control rate)” value (“Setaria viridis activity level” for short) is 2 (Level 2: growth control rate is greater than or equal to 20% and less than 40%).

Turning to `CCCCCCCCSC(=O)N1c2c(F)cc(F)cc2C(=O)N(C(C)C)S1(=O)=O` [Compound 222], in data set [1], the “corn plant damage level” value was 0 (Level 0: growth control rate is less than 5%) and the “rice plant damage level” value is recorded as 0 (Level 0: growth control rate is less than 5%). The “Amaranthus retroflexus activity level” value in data set [2] was 5 (Level 5: growth control rate is above 85%).

On to `COCN1c2c(F)cc(F)cc2C(=O)N(C(C)C)S1(=O)=O` [Compound 213], for which, in data set [1], the “corn plant damage level” value was 0 (Level 0: growth control rate is less than 5%); the “rice plant damage level” value is 1 (Level 1: growth control rate is greater than or equal to 500 and less than 200%); the “soybean plant damage level” value is reported as 0 (Level 0: growth control rate is less than 5%). For the same compound, the “Amaranthus retroflexus activity level” value in data set [2] was 3 (Level 3: growth control rate is greater than or equal to 40% and less than 60%).

For the compound `C#CCN1c2ccc(F)cc2C(=O)N(C(C)C)S1(=O)=O` [Compound 51], in data set [1], the “corn plant damage level” value was 0 (Level 0: growth control rate is less than 5%), the “rice plant damage level” value is reported as 0 (Level 0: growth control rate is less than 5%) and the “soybean plant damage level” value is 0 (Level 0: growth control rate is less than 5%). Besides, in data set [2], the “Amaranthus retroflexus activity level” value was 5 (Level 5: growth control rate is above 85%); the “Echinochloa crus-galli activity level” value was 3 (Level 3: growth control rate is greater than or equal to 40% and less than 60%); the “Setaria viridis activity level” value is 3 (Level 3: growth control rate is greater than or equal to 40% and less than 60%).

Take `CC(C)N1C(=O)c2cc(F)cc(F)c2N(C(=O)C2CC2)S1(=O)=O` [Compound 217]: in data set [1], the “corn plant damage level” value is 1 (Level 1: growth control rate is greater than or equal to 500 and less than 200%). Besides, in data set [2], the “Amaranthus retroflexus activity level” value was 5 (Level 5: growth control rate is above 85%), the “Digitaria sanguinalis activity level (growth control rate)” value was 5 (Level 5: growth control rate is above 85%), the “Echinochloa crus-galli activity level” value is recorded as 5 (Level 5: growth control rate is above 85%) and the “Setaria viridis activity level” value was 5 (Level 5: growth control rate is above 85%).

As to `CC(C)N1C(=O)c2cc(F)ccc2N(C(C)OC(=O)OC2CCCCC2)S1(=O)=O` (racemic) [Compound 194], in data set [1], the “corn plant damage level” value was 0 (Level 0: growth control rate is less than 5%), the “rice plant damage level” value is recorded as 0 (Level 0: growth control rate is less than 5%) and the “soybean plant damage level” value was 0 (Level 0: growth control rate is less than 5%). Also, in data set [2], the “Amaranthus retroflexus activity level” value is 4 (Level 4: growth control rate is greater than or equal to 60% and less than 85%).

Source of the values: US12441695B2, “Substituted thiadiazinone dioxide and preparation method therefor, herbicidal composition, and application therefor” (Qingdao Kingagroot Chemical Compound Co., Ltd., priority 2019, dated 2025).
